Like-named read-outs stand apart in the source and are kept apart here.
Assays:
α4β1 integrin = biological target: T1, α4β1 integrin (Homo sapiens, UniProt P05556+P13612); experiment: Molt4 T-cell leukemia adhesion assay (inhibition of α4β1-mediated cell adhesion to CS-1 peptide); format: cell-based
T1 construct: adding a volume of 80 μL consisted of 1.3×10^5 Molt4 cells; endogenous in cells; host or cells: Molt4 T-cell leukemia cells
Description: α4β1 integrins are cell surface heterodimeric glycoproteins that mediate cell adhesion to vascular cell adhesion molecule-1 (VCAM-1 or CD 106) as well as to extracellular matrix (ECM) protein fibronectin (FN). Integrin expression and function depend on cell activation. The dynamic changes in integrin affinity, avidity, or activation state are implicated in cell migration, survival and apoptosis, cancer development and metastasis. Binding affinities (IC50s) of the ligands were studied in a Molt4 T-cell leukemia adhesion assay by inhibiting the α4β1-mediated cell adhesion to CS-1 peptide ([…]), which is the binding motif of fibronectin to α4β1 receptor.
General Procedure for Cell Adhesion Assay:
96-well plates were prepared by coating them with 5 μg/mL neutravidin for a one-hour period, followed by adding […] biotin-conjugated CS-1 peptide. The wells were then blocked with 1% […] in phosphate buffer saline (PBS) solution, followed by adding a volume of 80 μL consisted of 1.3×10^5 Molt4 cells, and finally different dilutions of tested ligands in binding buffer (1 mM Mn^2+ TBS), were added to each well. To allow binding, the plates were incubated for 30 min at 37° C., followed by washing of unbound cells with PBS. Bound cells were fixed with 10% formalin buffered in phosphate for 30 min and stained with 0.5% crystal violet. After washing and drying at room temperature, the dye was dissolved in 1% SDS, and absorbance at 570 nm was measured using a 96-well TECAN OD UV/Vis spectrophotometer. Inhibition was calculated as a percentage resulting from the concentration-dependent curve.

[1] = compound by itself; cited from earlier work
[2] = xenograft model, optical and radioimaging; cited from earlier work

T1 sequence (P13612 34-1032): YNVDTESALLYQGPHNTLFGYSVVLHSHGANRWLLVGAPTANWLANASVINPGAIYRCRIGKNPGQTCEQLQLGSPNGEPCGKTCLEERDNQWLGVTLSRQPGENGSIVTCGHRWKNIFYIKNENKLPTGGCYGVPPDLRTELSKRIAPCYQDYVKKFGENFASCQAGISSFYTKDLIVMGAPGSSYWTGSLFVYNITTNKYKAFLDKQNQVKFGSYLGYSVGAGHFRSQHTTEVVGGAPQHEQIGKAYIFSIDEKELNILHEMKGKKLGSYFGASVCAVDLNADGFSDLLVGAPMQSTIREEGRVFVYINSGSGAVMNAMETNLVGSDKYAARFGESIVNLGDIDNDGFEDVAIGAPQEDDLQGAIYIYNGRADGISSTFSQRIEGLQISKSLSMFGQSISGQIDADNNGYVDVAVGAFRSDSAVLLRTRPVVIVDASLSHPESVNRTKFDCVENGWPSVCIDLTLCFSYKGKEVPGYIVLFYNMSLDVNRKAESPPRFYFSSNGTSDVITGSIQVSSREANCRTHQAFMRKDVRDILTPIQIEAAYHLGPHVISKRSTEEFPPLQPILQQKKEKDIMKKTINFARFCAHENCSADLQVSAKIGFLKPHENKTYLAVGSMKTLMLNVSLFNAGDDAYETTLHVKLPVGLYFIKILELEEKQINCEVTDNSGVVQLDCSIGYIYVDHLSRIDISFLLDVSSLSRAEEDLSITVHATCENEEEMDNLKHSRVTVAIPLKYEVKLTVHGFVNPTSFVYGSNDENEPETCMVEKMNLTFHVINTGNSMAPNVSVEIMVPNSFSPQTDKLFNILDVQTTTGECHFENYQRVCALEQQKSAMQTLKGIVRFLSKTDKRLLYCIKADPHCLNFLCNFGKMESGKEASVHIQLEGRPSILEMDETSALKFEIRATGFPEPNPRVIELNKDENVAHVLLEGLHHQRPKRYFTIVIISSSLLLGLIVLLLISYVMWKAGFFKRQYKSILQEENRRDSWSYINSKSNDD
T1 sequence (P05556 21-798): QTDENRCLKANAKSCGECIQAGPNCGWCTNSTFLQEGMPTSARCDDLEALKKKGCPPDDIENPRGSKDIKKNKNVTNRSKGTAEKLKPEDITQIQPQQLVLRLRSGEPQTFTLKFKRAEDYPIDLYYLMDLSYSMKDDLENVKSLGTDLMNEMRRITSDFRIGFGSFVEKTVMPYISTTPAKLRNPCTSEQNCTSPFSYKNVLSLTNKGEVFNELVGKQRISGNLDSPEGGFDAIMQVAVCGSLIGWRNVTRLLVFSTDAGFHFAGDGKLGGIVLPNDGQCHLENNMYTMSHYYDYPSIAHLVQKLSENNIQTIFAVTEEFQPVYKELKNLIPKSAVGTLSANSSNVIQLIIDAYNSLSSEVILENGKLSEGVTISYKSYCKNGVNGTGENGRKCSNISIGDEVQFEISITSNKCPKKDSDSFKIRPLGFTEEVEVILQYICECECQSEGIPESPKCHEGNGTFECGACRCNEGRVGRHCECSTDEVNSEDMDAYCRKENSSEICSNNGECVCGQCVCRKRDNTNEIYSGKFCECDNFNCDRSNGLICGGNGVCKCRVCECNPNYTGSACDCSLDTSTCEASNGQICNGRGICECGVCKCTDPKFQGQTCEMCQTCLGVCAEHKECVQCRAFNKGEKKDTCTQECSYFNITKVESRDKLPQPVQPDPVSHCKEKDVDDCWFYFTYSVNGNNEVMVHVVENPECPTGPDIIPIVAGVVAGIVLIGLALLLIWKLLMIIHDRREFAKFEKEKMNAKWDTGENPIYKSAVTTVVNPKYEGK

Row | SMILES | IC50 (α4β1 integrin) [nM] | other results
1 | NC(=O)C1(NC(=O)[C@H](CCCC(=O)O)NC(=O)[C@H](CCCCNC(=O)/C=C/c2cccnc2)NC(=O)c2ccc(Nc3nc4cc(Br)ccc4[nH]3)cc2)CCCCC1 [KLCA12] | – | IC50 (α4β1 integrin; Molt4 cells, adhesion to biotin-conjugated CS-1 peptide, 1 mM Mn2+ TBS, 30 min at 37° C.): 0.115 nM
2 | NC(=O)C1(NC(=O)C(CCCC(=O)O)NC(=O)C(CCCCNC(=O)C=Cc2cccnc2)NC(=O)Cc2ccc(Nc3nc4ccccc4s3)cc2)CCCCC1 (stereo not drawn) [KLCA14] | 0.053 | –
3 | Cc1ccccc1NC(=O)Nc1ccc(CC(=O)N[C@@H](CCCCNC(=O)/C=C/c2cccnc2)C(=O)N[C@@H](CCCC(=O)O)C(=O)NC2(C(N)=O)CCCCC2)cc1 [LLP2A] | – | water solubility [1]: not very water soluble; uptake in the kidneys [2]: rather high uptake in the kidneys

Continued, in another order:

Row | IC50 (α4β1 integrin) [nM] | SMILES | other results
4 | 4 | Cc1cccc2oc(Nc3ccc(CC(=O)NC(CCCCNC(=O)C=Cc4cccnc4)C(=O)NC(CCCC(=O)O)C(=O)NC4(C(N)=O)CCCCC4)cc3)nc12 (stereo not drawn) [KLCA15] | –
5 | 2 | NC(=O)C1(NC(=O)C(CCCC(=O)O)NC(=O)C(CCCCNC(=O)C=Cc2cccnc2)NC(=O)Cc2ccc(Nc3nc4ccccc4o3)cc2)CCCCC1 (stereo not drawn) [KLCA16] | –

Source: patent US8486370B2, “Heterocyclic ligands for integrin imaging and therapy” (The Regents of the University of California, priority 2006, dated 2013)
